In ChEMBL document CHEMBL4622851, “Cytotoxicity of 4-substituted quinoline derivatives: Anticancer and antileishmanial potential” (Bioorg Med Chem, 2020):
Calls of active or inactive are those of the source. No cut-off for these calls is given here.

System: SK-MEL-147
Assay: Cytotoxicity against human SK-MEL-147 cells assessed as reduction in cell viability at EC50 concentration preincubated for 1 hr in presence of GSH measured after 24 hrs by MTT assay
Format: functional, cell-based
Conditions: not given

Compound | Activity
CCCCC#Cc1cc(C(=O)OCC)nc2ccc(OC)cc12 | Active

System: SK-MEL-147
Assay: Cytotoxicity against human SK-MEL-147 cells assessed as reduction in cell viability at 50 and 100 uM after 24 hrs by MTT assay
Format: functional, cell-based
Conditions: not given

Compound | Activity
CCOC(=O)c1cc([Se]c2ccc(F)cc2)c2cc(OC)ccc2n1 | Active
CCOC(=O)c1cc([Se]Cc2ccccc2)c2cc(Br)ccc2n1 | Active
CCOC(=O)c1cc([Se]c2ccccc2)c2cc(Cl)ccc2n1 | Active
CCOC(=O)c1cc([Se]c2ccc3cc(OC)ccc3c2)c2cc(OC)ccc2n1 | Active
COc1ccc2nc(-c3c(C)cccc3C)cc([Se]c3ccccc3)c2c1 | Active
CCOC(=O)c1cc([Se]c2ccc(OC)cc2)c2cc(OC)ccc2n1 | Active
CCOC(=O)c1cc([Se]c2ccc3ccccc3c2)c2cc(OC)ccc2n1 | Active
CCOC(=O)c1cc([Se]Cc2ccccc2)c2cc(OC)ccc2n1 | Active
CCOC(=O)c1cc([Se]c2ccccc2C)c2cc(OC)ccc2n1 | Active
CCCCC#Cc1cc(C(=O)OCC)nc2ccc(OC)cc12 | Active

System: Jurkat
Assay: Cytotoxicity against human Jurkat cells assessed as reduction in cell viability at 50 and 100 uM after 24 hrs by MTT assay
Format: functional, cell-based
Conditions: not given

Compound | Activity
CCOC(=O)c1cc([Se]c2ccc(F)cc2)c2cc(OC)ccc2n1 | Active
CCOC(=O)c1cc([Se]Cc2ccccc2)c2cc(Br)ccc2n1 | Active
CCOC(=O)c1cc([Se]c2ccccc2)c2cc(Cl)ccc2n1 | Active
CCOC(=O)c1cc([Se]c2ccc3cc(OC)ccc3c2)c2cc(OC)ccc2n1 | Active
COc1ccc2nc(-c3c(C)cccc3C)cc([Se]c3ccccc3)c2c1 | Active
CCOC(=O)c1cc([Se]c2ccc(OC)cc2)c2cc(OC)ccc2n1 | Active
CCOC(=O)c1cc([Se]c2ccc3ccccc3c2)c2cc(OC)ccc2n1 | Active
CCOC(=O)c1cc([Se]Cc2ccccc2)c2cc(OC)ccc2n1 | Active
CCOC(=O)c1cc([Se]c2ccccc2C)c2cc(OC)ccc2n1 | Active
CCCCC#Cc1cc(C(=O)OCC)nc2ccc(OC)cc12 | Active

System: SK-MEL-147
Assay: Cytotoxicity against human SK-MEL-147 cells assessed as reduction in cell viability after 24 hrs by MTT assay
Format: functional, cell-based
Conditions: SK-MEL-147, 24 h

Compound | EC50 [µM]
CCOC(=O)c1cc([Se]c2ccc(F)cc2)c2cc(OC)ccc2n1 | > 150
CCOC(=O)c1cc([Se]Cc2ccccc2)c2cc(Br)ccc2n1 | 31.2
CCOC(=O)c1cc([Se]c2ccccc2)c2cc(Cl)ccc2n1 | 47.1
CCOC(=O)c1cc([Se]c2ccc3cc(OC)ccc3c2)c2cc(OC)ccc2n1 | 30.8
COc1ccc2nc(-c3c(C)cccc3C)cc([Se]c3ccccc3)c2c1 | 37.3
CCOC(=O)c1cc([Se]c2ccc(OC)cc2)c2cc(OC)ccc2n1 | 54.3 to 150
CCOC(=O)c1cc([Se]c2ccc3ccccc3c2)c2cc(OC)ccc2n1 | 32.2
CCOC(=O)c1cc([Se]Cc2ccccc2)c2cc(OC)ccc2n1 | 40.7
CCOC(=O)c1cc([Se]c2ccccc2C)c2cc(OC)ccc2n1 | 38.9
CCCCC#Cc1cc(C(=O)OCC)nc2ccc(OC)cc12 | 7.2

System: Jurkat
Assay: Cytotoxicity against human Jurkat cells assessed as reduction in cell viability after 24 hrs by MTT assay
Format: functional, cell-based
Conditions: not given

Compound | EC50 [µM]
CCOC(=O)c1cc([Se]c2ccc(F)cc2)c2cc(OC)ccc2n1 | 134
CCOC(=O)c1cc([Se]Cc2ccccc2)c2cc(Br)ccc2n1 | 53.6
CCOC(=O)c1cc([Se]c2ccccc2)c2cc(Cl)ccc2n1 | 53
CCOC(=O)c1cc([Se]c2ccc3cc(OC)ccc3c2)c2cc(OC)ccc2n1 | 31.3
COc1ccc2nc(-c3c(C)cccc3C)cc([Se]c3ccccc3)c2c1 | 26.9
CCOC(=O)c1cc([Se]c2ccc(OC)cc2)c2cc(OC)ccc2n1 | 82.5 to 97.3
CCOC(=O)c1cc([Se]c2ccc3ccccc3c2)c2cc(OC)ccc2n1 | 50.7
CCOC(=O)c1cc([Se]Cc2ccccc2)c2cc(OC)ccc2n1 | 20.8
CCOC(=O)c1cc([Se]c2ccccc2C)c2cc(OC)ccc2n1 | 14.9
CCCCC#Cc1cc(C(=O)OCC)nc2ccc(OC)cc12 | 15.9

System: SK-MEL-147
Assay: Induction of apoptosis in human SK-MEL-147 cells assessed as early apoptotic cells at 20 uM after 24 hrs by Annexin V-FITC/propidium iodide staining based flow cytometry
Format: functional, cell-based
Conditions: not given

Compound | Activity
CCCCC#Cc1cc(C(=O)OCC)nc2ccc(OC)cc12 | Active

System: SK-MEL-147
Assay: Induction of apoptosis in human SK-MEL-147 cells assessed as late apoptotic cells at 20 uM after 24 hrs by Annexin V-FITC/propidium iodide staining based flow cytometry
Format: functional, cell-based
Conditions: not given

Compound | Activity
CCCCC#Cc1cc(C(=O)OCC)nc2ccc(OC)cc12 | Active

System: SK-MEL-147
Assay: Induction of apoptosis in human SK-MEL-147 cells assessed as necrotic cells at 20 uM after 24 hrs by Annexin V-FITC/propidium iodide staining based flow cytometry
Format: functional, cell-based
Conditions: not given

Compound | Activity
CCCCC#Cc1cc(C(=O)OCC)nc2ccc(OC)cc12 | Active

System: SK-MEL-147
Assay: Induction of apoptosis in human SK-MEL-147 cells assessed as mitochondrial membrane potential dissipation after 24 hrs by TMRM staining based fluorescence microscopic method
Format: functional, cell-based
Conditions: not given

Compound | Activity
CCCCC#Cc1cc(C(=O)OCC)nc2ccc(OC)cc12 | Active

System: SK-MEL-147
Assay: Induction of apoptosis in human SK-MEL-147 cells assessed as increase in reactive oxygen species generation by CM-H2DCFDA staining based flow cytometric analysis
Format: functional, cell-based
Conditions: not given

Compound | Activity
CCCCC#Cc1cc(C(=O)OCC)nc2ccc(OC)cc12 | Active

System: SK-MEL-147
Assay: Induction of apoptosis in human SK-MEL-147 cells assessed mitochondrial permeabilization after 24 hrs by mitotracker green staining based microscopic analysis
Format: functional, cell-based
Conditions: not given

Compound | Activity
CCCCC#Cc1cc(C(=O)OCC)nc2ccc(OC)cc12 | Active

System: SK-MEL-147
Assay: Cytotoxicity against human SK-MEL-147 cells assessed as reduction in cell viability at EC50 concentration preincubated for 1 hr in presence of DTT measured after 24 hrs by MTT assay
Format: functional, cell-based
Conditions: not given

Compound | Activity
CCCCC#Cc1cc(C(=O)OCC)nc2ccc(OC)cc12 | Active

System: SK-MEL-147
Assay: Cytotoxicity against human SK-MEL-147 cells assessed as reduction in cell viability at EC50 concentration preincubated for 1 hr in presence of N-acetyl cysteine measured after 24 hrs by MTT assay
Format: functional, cell-based
Conditions: not given

Compound | Activity
CCCCC#Cc1cc(C(=O)OCC)nc2ccc(OC)cc12 | Active

System: SK-MEL
Assay: Cytotoxicity against human SK-MEL-147 cells assessed as reduction in cell viability at EC50 concentration preincubated for 1 hr in presence of EGTA measured after 24 hrs by MTT assay
Format: functional, cell-based
Conditions: not given

Compound | Activity
CCCCC#Cc1cc(C(=O)OCC)nc2ccc(OC)cc12 | Active

System: SK-MEL
Assay: Cytotoxicity against human SK-MEL-147 cells assessed as reduction in cell viability at EC50 concentration preincubated for 1 hr in presence of BAPTA measured after 24 hrs by MTT assay
Format: functional, cell-based
Conditions: not given

Compound | Activity
CCCCC#Cc1cc(C(=O)OCC)nc2ccc(OC)cc12 | Active

System: SK-MEL-147
Assay: Cytotoxicity against human SK-MEL-147 cells assessed as reduction in cell viability at EC50 concentration preincubated for 1 hr in presence of Boc-D-FMK measured after 24 hrs by MTT assay
Format: functional, cell-based
Conditions: not given

Compound | Activity
CCCCC#Cc1cc(C(=O)OCC)nc2ccc(OC)cc12 | inactive

System: SK-MEL-147
Assay: Cytotoxicity against human SK-MEL-147 cells assessed as reduction in cell viability at EC50 concentration preincubated for 1 hr in presence of E-64 measured after 24 hrs by MTT assay
Format: functional, cell-based
Conditions: not given

Compound | Activity
CCCCC#Cc1cc(C(=O)OCC)nc2ccc(OC)cc12 | inactive

Species: Rattus norvegicus
Assay: Induction of mitochondrial permeabilization in rat liver mitochondria assessed as mitochondrial transmembrane potential dissipation by rhodamine-123 dye based spectrofluorometer analysis
Format: functional
Conditions: not given

Compound | Activity
CCCCC#Cc1cc(C(=O)OCC)nc2ccc(OC)cc12 | Active

Species: Rattus norvegicus
Assay: Induction of mitochondrial permeabilization in rat liver mitochondria assessed as calcium efflux by calcium green based spectrofluorometer analysis
Format: functional
Conditions: not given

Compound | Activity
CCCCC#Cc1cc(C(=O)OCC)nc2ccc(OC)cc12 | Active

Species: Rattus norvegicus
Assay: Induction of mitochondrial permeabilization in rat liver mitochondria assessed as mitochondrial transmembrane potential dissipation in presence of DTT by rhodamine-123 dye based spectrofluorometer analysis
Format: functional
Conditions: not given

Compound | Activity
CCCCC#Cc1cc(C(=O)OCC)nc2ccc(OC)cc12 | Active

Species: Rattus norvegicus
Assay: Induction of mitochondrial permeabilization in rat liver mitochondria assessed as mitochondrial transmembrane potential dissipation in presence of CsA by rhodamine-123 dye based spectrofluorometer analysis
Format: functional
Conditions: not given

Compound | Activity
CCCCC#Cc1cc(C(=O)OCC)nc2ccc(OC)cc12 | Active

Species: Rattus norvegicus
Assay: Induction of mitochondrial permeabilization in rat liver mitochondria assessed as mitochondrial transmembrane potential dissipation in presence of ADP by rhodamine-123 dye based spectrofluorometer analysis
Format: functional
Conditions: not given

Compound | Activity
CCCCC#Cc1cc(C(=O)OCC)nc2ccc(OC)cc12 | Active

Species: Rattus norvegicus
Assay: Induction of mitochondrial permeabilization in rat liver mitochondria assessed as calcium efflux in presence of DTT by calcium green based spectrofluorometer analysis
Format: functional
Conditions: not given

Compound | Activity
CCCCC#Cc1cc(C(=O)OCC)nc2ccc(OC)cc12 | Active

Species: Rattus norvegicus
Assay: Induction of mitochondrial permeabilization in rat liver mitochondria assessed as calcium efflux in presence of CsA by calcium green based spectrofluorometer analysis
Format: functional
Conditions: not given

Compound | Activity
CCCCC#Cc1cc(C(=O)OCC)nc2ccc(OC)cc12 | Active

Species: Rattus norvegicus
Assay: Induction of mitochondrial permeabilization in rat liver mitochondria assessed as calcium efflux in presence of ADP by calcium green based spectrofluorometer analysis
Format: functional
Conditions: not given

Compound | Activity
CCCCC#Cc1cc(C(=O)OCC)nc2ccc(OC)cc12 | inactive

System: SK-MEL-147
Assay: Induction of apoptosis in human SK-MEL-147 cells assessed as increase in BAX expression at 20 uM after 24 hrs by western blotting analysis
Format: functional, cell-based
Conditions: not given

Compound | Activity
CCCCC#Cc1cc(C(=O)OCC)nc2ccc(OC)cc12 | Active

System: SK-MEL-147
Assay: Induction of apoptosis in human SK-MEL-147 cells assessed as effect on BCL-2 protein expression at 20 uM after 24 hrs by western blotting analysis
Format: functional, cell-based
Conditions: not given

Compound | Activity
CCCCC#Cc1cc(C(=O)OCC)nc2ccc(OC)cc12 | inactive

System: SK-MEL-147
Assay: Cytotoxicity against human SK-MEL-147 cells assessed as reduction in cell viability in presence of BCL2 inhibitor venetoclax
Format: functional, cell-based
Conditions: not given

Compound | Activity
CCCCC#Cc1cc(C(=O)OCC)nc2ccc(OC)cc12 | Active

Molecular target: Cathepsin B (Homo sapiens, UniProt P07858)
Assay: Inhibition of cathepsin B (unknown origin) using Z-FR-AMC as substrate by spectrofluorometric analysis
Conditions: read-out: IC50

Compound | IC50 [µM]
CCCCC#Cc1cc(C(=O)OCC)nc2ccc(OC)cc12 | 6.86

Molecular target: Procathepsin L (Homo sapiens, UniProt P07711)
Assay: Inhibition of cathepsin L (unknown origin) using Z-FR-AMC as substrate by spectrofluorometric analysis
Conditions: read-out: IC50

Sequence of Procathepsin L (P07711 whole entry): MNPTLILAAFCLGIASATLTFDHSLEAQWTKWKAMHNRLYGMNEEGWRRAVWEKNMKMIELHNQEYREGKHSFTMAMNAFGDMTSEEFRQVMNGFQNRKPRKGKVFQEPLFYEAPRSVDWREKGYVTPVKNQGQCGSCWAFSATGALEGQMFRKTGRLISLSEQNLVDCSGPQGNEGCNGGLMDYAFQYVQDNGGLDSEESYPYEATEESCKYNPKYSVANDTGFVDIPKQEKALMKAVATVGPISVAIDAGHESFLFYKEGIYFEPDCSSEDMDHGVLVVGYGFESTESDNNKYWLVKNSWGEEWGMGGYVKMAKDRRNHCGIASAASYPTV

Compound | IC50 [µM]
CCCCC#Cc1cc(C(=O)OCC)nc2ccc(OC)cc12 | 3.69

Molecular target: Cysteine proteinase B (Leishmania mexicana, UniProt P36400)
Assay: Inhibition of Leishmania mexicana rCPB2.8 using Z-FR-AMC as substrate by spectrofluorometric analysis
Conditions: not given

Sequence of Cysteine proteinase B (P36400 whole entry): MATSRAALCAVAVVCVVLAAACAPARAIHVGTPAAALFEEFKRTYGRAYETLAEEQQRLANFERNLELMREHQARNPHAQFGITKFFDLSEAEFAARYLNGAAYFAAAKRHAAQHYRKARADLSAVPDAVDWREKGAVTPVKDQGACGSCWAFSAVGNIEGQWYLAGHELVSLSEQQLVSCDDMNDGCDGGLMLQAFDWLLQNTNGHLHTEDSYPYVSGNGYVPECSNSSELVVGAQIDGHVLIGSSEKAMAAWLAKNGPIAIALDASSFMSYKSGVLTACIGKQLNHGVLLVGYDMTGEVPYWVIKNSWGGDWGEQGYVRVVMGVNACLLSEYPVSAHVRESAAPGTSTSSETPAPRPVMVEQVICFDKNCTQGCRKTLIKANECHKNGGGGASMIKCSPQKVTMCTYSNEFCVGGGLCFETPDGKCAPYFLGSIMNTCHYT

Compound | IC50 [µM]
COc1ccc2nc(-c3c(C)cccc3C)cc([Se]c3ccccc3)c2c1 | 12.9

System: not listed separately
Assay: Inhibition of Leishmania mexicana rCPB3.0 using Z-FR-AMC as substrate by spectrofluorometric analysis
Conditions: not given

Compound | IC50 [µM]
COc1ccc2nc(-c3c(C)cccc3C)cc([Se]c3ccccc3)c2c1 | 7.44

System: not listed separately
Assay: Inhibition of Leishmania mexicana rCPB3.0 H84Y mutant using Z-FR-AMC as substrate by spectrofluorometric analysis
Conditions: not given

Compound | IC50 [µM]
CCOC(=O)c1cc([Se]c2ccc3cc(OC)ccc3c2)c2cc(OC)ccc2n1 | 8.44
COc1ccc2nc(-c3c(C)cccc3C)cc([Se]c3ccccc3)c2c1 | 20.4
